Experimental data reported in US20080167532A1, “ASSESSING CANCER TREATMENT RESPONSIVENESS” (Mayo Foundation for Medical Education and Research, priority 2006, published 2008).
pIC50: −log10 of the molar value. Entries after “also recorded” stand apart in the source; their conditions may differ.

What was measured:
DRO cells [1] = test: DRO cell proliferation (cell counts over six days); type: cell-based, human; details: DRO cells treated every 48 hours over six days; read-out: IC50, concentration at which 50% of cell proliferation was inhibited
Protocol: . Cells were treated every 48 hours over six days. Cell numbers were counted and data were plotted as mean values ±S.D. The thiazolidinediones inhibited cell proliferation of DRO cells in a dose responsive fashion (FIG. 3B). […]. The EC50 concentrations were in close agreement with the IC50 concentrations for each compound (FIG. 3B).
. […] Cell numbers were counted and data were plotted as mean values ±S.D. (FIG. 9D).
DRO90-1 (DRO) and ARO81 (ARO) cells were derived from primary cultures of human anaplastic thyroid carcinoma tumors that were obtained from Dr. G. J. Juillard (University of California-Los Angeles, Los Angeles, Calif.), and KTC-2 and KTC3 cells were obtained from Dr. Junichi Kurebayashi (Podtcheko et al., J. Clin. Endocrinol. Metab., 88:1889-1896 (2003) and Pushkarev et al., Molecular mechanisms of the Effects of Low Concentrations of Taxol in Anaplastic Thyroid Cancer Cells. Endocrinology: en. 2004-0127 (2004)). Cells were cultured in RPMI 1640 medium (Cellgro, Herndon Va.) supplemented with 10% charcoal-stripped fetal bovine serum (Hyclone), non-essential amino acids, sodium pyruvate, and penicillin-streptomycin-amphotericin B at 37° C. in a humidified atmosphere with 5% CO^2. Charcoal-stripped serum was used to exclude endogenous PPAR ligands contained in serum. For proliferation studies, cells were plated in triplicate in 12-well culture plates at initial concentrations of 2×10^4 cells/well. After overnight incubation, cells were treated with 10 nM RS5444 or DMSO diluent (Sigma) for 6 days with medium, and drug changed every 48 hours. After 6 days, cells were washed with PBS (Cellgro), trypsinized, and counted by Beckman Coulter Counter (Beckman Instruments, Fullerton Calif.). […]. Cells were treated with either DMSO or 10 nM RS5444 (24 hours). After treatment, phase images were obtained on an inverted microscope. For real time PCR studies, cells were plated in 60 mm plates at 50% confluence and treated with 10 nM RS5444 for indicated incubation periods. […].
Cells were either plated in triplicate at 7.5×10^4 cells/mL in 6-well plates or 2×10^4 cells/well in 12-well plates, allowed to adhere overnight, and then transfected for 24 to 72 hours with 2 to 5 μg of either scrambled, p21^WAF1/CIP1 (1022539), RhoB (SI00058933) or PPAR-γ-specific siRNA duplexes (Qiagen Valencia, Calif.) using RNAiFect reagent (Qiagen). The DNA target sequence for PPAR-γ was 5′-[…]-3′. After transfection, cells in the 6-well plates were treated with either DMSO diluent or 10 nM RS5444 for 24 hours and then analyzed by either real time PCR or immunoblotting. Cells in the 12-well plates were exposed for 6 days with medium, and drug changed every 48 hours. After 6 days, cells were washed with PBS (Cellgro), trypsinized, and counted by Beckman Coulter Counter.

DRO cells [2] = test: Western blot of RhoB, RhoA, p21, cyclin E polypeptides in DRO cells; type: cell-based, human
Protocol: RhoB and p21^WAF1/CIP1 polypeptide expression also was examined in ATC cells to determine the time course of induction of each polypeptide following stimulation with a PPARγ agonist (FIG. 6). […]. Polypeptide lysates were prepared and examined for RhoB, RhoA and β-actin expression. […]; FIG. 6A).
The time course for induction of RhoB and p21^WAF1/CIP1 was determined using Western blotting.
DRO90-1 (DRO) and ARO81 (ARO) cells were derived from primary cultures of human anaplastic thyroid carcinoma tumors that were obtained from Dr. G. J. Juillard (University of California-Los Angeles, Los Angeles, Calif.), and KTC-2 and KTC3 cells were obtained from Dr. Junichi Kurebayashi (Podtcheko et al., J. Clin. Endocrinol. Metab., 88:1889-1896 (2003) and Pushkarev et al., Molecular mechanisms of the Effects of Low Concentrations of Taxol in Anaplastic Thyroid Cancer Cells. Endocrinology: en. 2004-0127 (2004)). Cells were cultured in RPMI 1640 medium (Cellgro, Herndon Va.) supplemented with 10% charcoal-stripped fetal bovine serum (Hyclone), non-essential amino acids, sodium pyruvate, and penicillin-streptomycin-amphotericin B at 37° C. in a humidified atmosphere with 5% CO^2. Charcoal-stripped serum was used to exclude endogenous PPAR ligands contained in serum. For proliferation studies, cells were plated in triplicate in 12-well culture plates at initial concentrations of 2×10^4 cells/well. After overnight incubation, cells were treated with 10 nM RS5444 or DMSO diluent (Sigma) for 6 days with medium, and drug changed every 48 hours. After 6 days, cells were washed with PBS (Cellgro), trypsinized, and counted by Beckman Coulter Counter (Beckman Instruments, Fullerton Calif.). For morphology studies, cells were plated in 12 well plates at initial concentrations of 2.5×10^4 cells/well. Cells were treated with either DMSO or 10 nM RS5444 (24 hours). After treatment, phase images were obtained on an inverted microscope. For real time PCR studies, cells were plated in 60 mm plates at 50% confluence and treated with 10 nM RS5444 for indicated incubation periods. […].
Cells were collected and lysed in RIPA buffer containing 50 mM Tris, 5 mM EDTA, 150 mM NaCl, 0.1% SDS, 0.5% Deoxycholate, 1% NP40, and protease inhibitor cocktail (Roche) followed by centrifugation. Excised tumor tissues were lysed in 50 mM Tris pH 8.0+1% SDS. Collected supernatants were, analyzed for protein concentration using Pierce's BCA assay, with 25 μg protein loaded per gel lane (Invitrogen) with later transfer to Immobilon-P membranes. The membranes were hybridized with antibodies (Santa Cruz, Cell Signaling, Sigma-Aldrich, St. Louis Mo.) as indicated overnight at 4° C. followed by treatment with species-specific horseradish peroxidase IgG (Jackson labs) for 45 minutes at room temperature. Detection was performed using Supersignal West Pico chemoluminescence kit (Pierce). Quantification of bands was performed in triplicate using Image Quant 5.2 (Molecular Dynamics, Sunnyvale Calif.).

`Cc1cc(Oc2ccc3nc(COc4ccc(CC5SC(=O)NC5=O)cc4)n(C)c3c2)cc(C)c1N` (stereo not shown) [RS5444] was tested, and the pIC50 (DRO cells [1]) was about 9.10, the “RhoA polypeptide expression (Western blot)” value (DRO cells [2]; 10 nM RS5444) was “no change in RhoA polypeptide expression; also recorded: no change in RhoA polypeptide levels” and the “Cyclin E levels (Western blot)” value (DRO cells [2]; 10 nM, at 24 hours, not at earlier time points) was “down-regulated”. For the same compound, the “RhoB polypeptide level, time course (Western blot)” value (DRO cells [2]; 10 nM, up to 24 hours) was “significantly elevated at 6 hours”, the “p21WAF1/CIP1 polypeptide level, time course (Western blot)” value (DRO cells [2]; 10 nM, up to 24 hours) was “significantly elevated at 6 hours” and the “RhoB polypeptide levels (Western blot)” value (DRO cells [2]; 24 hours after single treatment, 10 nM RS5444, 100 nM rosiglitazone, 1 μM troglitazone) was “induced most strongly; also recorded: induced RhoB polypeptide levels”. The “RhoB and p21 expression (Western blot)” value (DRO cells [2]; 24 hours, 10 nM RS5444, 1 ng/mL FK-228, 10 μM FTI-277) was “upregulation of both RhoB and p21 expression”.
